Columns and labels:
Assay in all cases: Caliper, Mobility shift assay off-chip
DYRK1B (human) = DYRK1B (human) (UniProt Q9Y463)
SLK (human) = SLK (human) (UniProt Q9H2G2)
GSG2 (human) = GSG2 (human) (UniProt Q8TF76)
PDK2 (human) = PDK2 (human) (UniProt Q15119)
BRSK1 (human) = BRSK1 (human) (UniProt Q8TDC3)
CAMK2D (human) = CAMK2D (human) (UniProt Q13557)
CSNK2A2 (human) = CSNK2A2 (human) (UniProt P19784)
MAPKAPK3 (human) = MAPKAPK3 (human) (UniProt Q16644)
EPHA4 (human) = EPHA4 (human) (UniProt P54764)
EPHB3 (human) = EPHB3 (human) (UniProt P54753)
PRKACG (human) = PRKACG (human) (UniProt P22612)
STK38 (human) = STK38 (human) (UniProt Q15208)
FGFR4 (human) = FGFR4 (human) (UniProt P22455)
BLK (human) = BLK (human) (UniProt P51451)
CSK (human) = CSK (human) (UniProt P41240)
ABL2 (human) = ABL2 (human) (UniProt P42684)
MUSK (human) = MUSK (human) (UniProt O15146)
IRAK1 (human) = IRAK1 (human) (UniProt P51617)
IKBKE (human) = IKBKE (human) (UniProt Q14164)
MST4 (human) = MST4 (human) (UniProt Q9P289)
CLK3 (human) = CLK3 (human) (UniProt P49761)
PRKD3 (human) = PRKD3 (human) (UniProt O94806)
DAPK1 (human) = DAPK1 (human) (UniProt P53355)
CDK1 (human) = CDK1 (human) (UniProt P06493)
CAMK1 (human) = CAMK1 (human) (UniProt Q14012)
DCLK2 (human) = DCLK2 (human) (UniProt Q8N568)
MAPK9 (human) = MAPK9 (human) (UniProt P45984)
EPHB4 (human) = EPHB4 (human) (UniProt P54760)
CSNK1G2 (human) = CSNK1G2 (human) (UniProt P78368)
AKT2 (human) = AKT2 (human) (UniProt P31751)
SYK (human) = SYK (human) (UniProt P43405)
HIPK3 (human) = HIPK3 (human) (UniProt Q9H422)
CSNK1G1 (human) = CSNK1G1 (human) (UniProt Q9HCP0)

Chain of IRAK1 (human) (P51617 whole entry, looked up): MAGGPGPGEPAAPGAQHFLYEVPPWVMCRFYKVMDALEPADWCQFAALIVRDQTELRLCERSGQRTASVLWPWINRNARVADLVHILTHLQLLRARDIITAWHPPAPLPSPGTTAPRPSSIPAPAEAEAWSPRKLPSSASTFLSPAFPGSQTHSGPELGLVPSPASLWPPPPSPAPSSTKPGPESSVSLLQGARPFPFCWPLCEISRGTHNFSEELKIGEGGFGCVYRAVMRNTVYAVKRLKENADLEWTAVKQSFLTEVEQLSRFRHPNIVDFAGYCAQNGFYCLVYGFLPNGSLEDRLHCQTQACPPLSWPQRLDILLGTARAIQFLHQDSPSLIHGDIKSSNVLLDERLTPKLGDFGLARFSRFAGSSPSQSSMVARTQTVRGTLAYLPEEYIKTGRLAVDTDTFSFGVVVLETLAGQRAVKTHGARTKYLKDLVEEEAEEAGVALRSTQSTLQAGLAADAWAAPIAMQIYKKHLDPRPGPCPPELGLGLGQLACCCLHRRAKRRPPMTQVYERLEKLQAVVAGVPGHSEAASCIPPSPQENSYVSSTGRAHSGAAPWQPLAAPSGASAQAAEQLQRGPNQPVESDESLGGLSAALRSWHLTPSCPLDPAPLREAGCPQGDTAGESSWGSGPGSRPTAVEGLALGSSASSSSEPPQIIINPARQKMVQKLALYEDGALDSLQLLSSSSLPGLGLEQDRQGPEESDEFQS
Chain of BLK (human) (P51451 whole entry, looked up): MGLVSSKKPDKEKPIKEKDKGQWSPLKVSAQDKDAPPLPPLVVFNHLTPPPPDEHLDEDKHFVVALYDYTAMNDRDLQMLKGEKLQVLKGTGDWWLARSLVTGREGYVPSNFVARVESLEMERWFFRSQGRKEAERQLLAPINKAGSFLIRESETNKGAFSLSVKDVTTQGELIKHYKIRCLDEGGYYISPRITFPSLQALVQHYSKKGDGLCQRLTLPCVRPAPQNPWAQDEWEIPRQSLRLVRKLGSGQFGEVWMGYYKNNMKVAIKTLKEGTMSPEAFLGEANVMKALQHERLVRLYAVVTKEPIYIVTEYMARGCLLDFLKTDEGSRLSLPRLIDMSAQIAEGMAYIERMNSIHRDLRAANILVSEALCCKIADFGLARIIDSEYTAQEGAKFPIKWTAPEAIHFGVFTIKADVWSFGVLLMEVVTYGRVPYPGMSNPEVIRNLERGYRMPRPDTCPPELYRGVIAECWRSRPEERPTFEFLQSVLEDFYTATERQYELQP
Chain of STK38 (human) (Q15208 whole entry, looked up): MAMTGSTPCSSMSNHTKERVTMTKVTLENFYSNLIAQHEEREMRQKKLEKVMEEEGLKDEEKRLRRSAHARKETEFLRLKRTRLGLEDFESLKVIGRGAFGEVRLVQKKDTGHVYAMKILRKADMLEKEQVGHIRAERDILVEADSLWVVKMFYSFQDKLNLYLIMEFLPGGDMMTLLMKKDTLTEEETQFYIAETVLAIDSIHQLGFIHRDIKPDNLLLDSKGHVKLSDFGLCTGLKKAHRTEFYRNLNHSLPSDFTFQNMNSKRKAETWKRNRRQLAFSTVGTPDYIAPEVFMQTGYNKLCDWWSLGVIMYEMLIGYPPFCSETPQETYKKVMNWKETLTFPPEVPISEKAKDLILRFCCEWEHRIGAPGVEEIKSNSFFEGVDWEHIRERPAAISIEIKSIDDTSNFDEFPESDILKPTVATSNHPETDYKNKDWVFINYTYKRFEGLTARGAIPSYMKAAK
Chain of IKBKE (human) (Q14164 whole entry, looked up): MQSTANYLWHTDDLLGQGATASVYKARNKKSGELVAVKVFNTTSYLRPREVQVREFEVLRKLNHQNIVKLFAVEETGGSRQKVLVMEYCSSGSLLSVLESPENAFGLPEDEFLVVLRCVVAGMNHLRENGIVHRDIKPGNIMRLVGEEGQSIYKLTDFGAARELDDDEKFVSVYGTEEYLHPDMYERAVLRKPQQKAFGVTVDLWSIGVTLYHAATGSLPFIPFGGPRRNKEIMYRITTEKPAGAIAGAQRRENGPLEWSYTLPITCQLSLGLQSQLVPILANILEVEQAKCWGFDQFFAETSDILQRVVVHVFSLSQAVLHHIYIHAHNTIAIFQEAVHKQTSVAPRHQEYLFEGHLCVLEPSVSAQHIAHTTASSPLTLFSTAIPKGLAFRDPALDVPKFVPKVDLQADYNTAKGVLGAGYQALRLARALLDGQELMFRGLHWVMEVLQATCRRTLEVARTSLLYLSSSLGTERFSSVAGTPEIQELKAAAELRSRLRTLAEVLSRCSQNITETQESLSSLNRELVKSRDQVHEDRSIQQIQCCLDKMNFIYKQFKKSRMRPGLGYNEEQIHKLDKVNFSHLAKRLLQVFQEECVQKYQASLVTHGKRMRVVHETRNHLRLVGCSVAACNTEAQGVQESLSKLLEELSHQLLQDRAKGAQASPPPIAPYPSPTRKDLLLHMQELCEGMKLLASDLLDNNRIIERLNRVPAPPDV
Chain of CSNK2A2 (human) (P19784 whole entry, looked up): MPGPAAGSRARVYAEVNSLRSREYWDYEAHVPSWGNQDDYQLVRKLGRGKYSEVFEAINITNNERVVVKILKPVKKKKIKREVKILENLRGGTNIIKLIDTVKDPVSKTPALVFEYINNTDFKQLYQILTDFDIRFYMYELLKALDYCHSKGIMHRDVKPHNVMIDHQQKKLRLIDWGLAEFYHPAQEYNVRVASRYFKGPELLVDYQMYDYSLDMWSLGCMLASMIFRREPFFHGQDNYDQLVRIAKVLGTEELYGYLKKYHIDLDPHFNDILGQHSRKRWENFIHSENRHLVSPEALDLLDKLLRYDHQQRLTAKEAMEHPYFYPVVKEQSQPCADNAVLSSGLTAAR
Chain of CAMK2D (human) (Q13557 whole entry, looked up): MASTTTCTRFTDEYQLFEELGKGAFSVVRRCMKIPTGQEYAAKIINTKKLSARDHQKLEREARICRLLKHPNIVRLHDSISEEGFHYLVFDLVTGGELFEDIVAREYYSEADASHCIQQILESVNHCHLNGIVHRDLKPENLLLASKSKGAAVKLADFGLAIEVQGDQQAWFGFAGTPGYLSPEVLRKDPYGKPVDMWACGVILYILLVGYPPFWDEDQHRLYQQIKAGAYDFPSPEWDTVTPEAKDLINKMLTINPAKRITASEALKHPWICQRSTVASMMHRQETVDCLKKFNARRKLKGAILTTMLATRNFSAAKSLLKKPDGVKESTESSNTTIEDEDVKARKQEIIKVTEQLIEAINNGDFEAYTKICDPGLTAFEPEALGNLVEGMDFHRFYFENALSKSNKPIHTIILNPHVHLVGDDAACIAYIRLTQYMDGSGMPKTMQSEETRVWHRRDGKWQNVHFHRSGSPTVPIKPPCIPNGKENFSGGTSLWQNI
Chain of MAPK9 (human) (P45984 whole entry, looked up): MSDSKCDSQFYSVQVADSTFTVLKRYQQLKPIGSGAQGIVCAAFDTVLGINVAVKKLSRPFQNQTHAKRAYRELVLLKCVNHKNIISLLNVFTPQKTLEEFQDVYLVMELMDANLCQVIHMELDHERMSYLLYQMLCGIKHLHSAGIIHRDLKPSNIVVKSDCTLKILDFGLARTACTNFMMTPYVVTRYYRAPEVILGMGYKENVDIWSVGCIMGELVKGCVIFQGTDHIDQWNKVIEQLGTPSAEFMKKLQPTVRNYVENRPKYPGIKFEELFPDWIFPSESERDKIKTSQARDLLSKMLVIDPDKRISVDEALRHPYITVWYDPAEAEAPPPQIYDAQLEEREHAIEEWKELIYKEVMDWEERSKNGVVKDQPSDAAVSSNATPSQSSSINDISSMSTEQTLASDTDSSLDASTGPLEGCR
Chain of MAPKAPK3 (human) (Q16644 whole entry, looked up): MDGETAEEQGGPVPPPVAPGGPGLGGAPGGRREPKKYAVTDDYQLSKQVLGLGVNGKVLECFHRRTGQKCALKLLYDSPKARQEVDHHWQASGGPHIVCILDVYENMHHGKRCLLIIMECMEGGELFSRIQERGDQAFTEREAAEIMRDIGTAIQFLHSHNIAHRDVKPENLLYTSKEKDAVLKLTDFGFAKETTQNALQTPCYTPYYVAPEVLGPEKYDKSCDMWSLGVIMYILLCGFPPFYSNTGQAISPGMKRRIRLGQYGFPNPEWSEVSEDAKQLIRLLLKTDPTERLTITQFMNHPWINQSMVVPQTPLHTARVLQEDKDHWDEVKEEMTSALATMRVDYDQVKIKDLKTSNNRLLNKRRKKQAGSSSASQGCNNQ
Chain of DCLK2 (human) (Q8N568 whole entry, looked up): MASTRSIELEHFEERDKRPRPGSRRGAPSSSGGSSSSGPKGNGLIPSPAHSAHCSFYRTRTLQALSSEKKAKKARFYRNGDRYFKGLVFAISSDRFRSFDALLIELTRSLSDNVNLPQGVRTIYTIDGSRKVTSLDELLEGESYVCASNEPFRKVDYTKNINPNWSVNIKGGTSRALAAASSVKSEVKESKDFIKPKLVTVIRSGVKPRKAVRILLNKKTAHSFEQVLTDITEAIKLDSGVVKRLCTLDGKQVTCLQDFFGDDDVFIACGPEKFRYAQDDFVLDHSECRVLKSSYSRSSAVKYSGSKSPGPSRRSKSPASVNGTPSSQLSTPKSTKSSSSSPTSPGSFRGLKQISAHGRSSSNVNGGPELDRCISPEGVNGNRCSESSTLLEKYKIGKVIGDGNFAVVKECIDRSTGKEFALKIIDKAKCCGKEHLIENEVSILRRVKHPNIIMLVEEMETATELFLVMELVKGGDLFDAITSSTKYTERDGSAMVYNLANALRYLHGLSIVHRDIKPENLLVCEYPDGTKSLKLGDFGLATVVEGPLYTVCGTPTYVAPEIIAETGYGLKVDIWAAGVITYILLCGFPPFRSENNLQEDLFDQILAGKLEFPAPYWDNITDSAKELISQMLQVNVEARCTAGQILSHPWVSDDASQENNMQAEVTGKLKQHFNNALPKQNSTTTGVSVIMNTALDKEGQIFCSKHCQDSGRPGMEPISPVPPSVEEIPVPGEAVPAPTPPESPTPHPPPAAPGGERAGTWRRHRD

## CCN(CC)CCNC(=O)c1c(C)[nH]c(/C=C2\C(=O)Nc3ccc(F)cc32)c1C
DYRK1B (human); compound 4.0 µM
  inhibition: 74.7%
SLK (human); compound 0.2 µM
  inhibition: 78.3%
GSG2 (human); compound 0.2 µM
  inhibition: 39.2%
GSG2 (human); compound 4.0 µM
  inhibition: 89.7%
PDK2 (human); compound 0.2 µM
  inhibition: -1.2%
PDK2 (human); compound 4.0 µM
  inhibition: 26%
BRSK1 (human); compound 0.2 µM
  inhibition: 40%
BRSK1 (human); compound 4.0 µM
  inhibition: 86.6%
CAMK2D (human); compound 0.2 µM
  inhibition: 88.8%
CAMK2D (human); compound 4.0 µM
  inhibition: 100%
CSNK2A2 (human); compound 0.2 µM
  inhibition: 4.5%
CSNK2A2 (human); compound 4.0 µM
  inhibition: 41.2%
MAPKAPK3 (human); compound 0.2 µM
  inhibition: 1.2%
MAPKAPK3 (human); compound 4.0 µM
  inhibition: 3.2%
EPHA4 (human); compound 0.2 µM
  inhibition: 2.1%
EPHA4 (human); compound 4.0 µM
  inhibition: 40.8%
EPHB3 (human); compound 0.2 µM
  inhibition: -1.7%
EPHB3 (human); compound 4.0 µM
  inhibition: 15.3%
PRKACG (human); compound 0.2 µM
  inhibition: -4.4%
PRKACG (human); compound 4.0 µM
  inhibition: 28.9%
STK38 (human); compound 0.2 µM
  inhibition: 8.9%
STK38 (human); compound 4.0 µM
  inhibition: 45.1%
FGFR4 (human); compound 0.2 µM
  inhibition: 10.3%
FGFR4 (human); compound 4.0 µM
  inhibition: 62.6%
BLK (human); compound 0.2 µM
  inhibition: 79.2%
BLK (human); compound 4.0 µM
  inhibition: 101%
CSK (human); compound 0.2 µM
  inhibition: 1.2%
CSK (human); compound 4.0 µM
  inhibition: 17.6%
ABL2 (human); compound 0.2 µM
  inhibition: 13.7%
ABL2 (human); compound 4.0 µM
  inhibition: 66.6%
MUSK (human); compound 0.2 µM
  inhibition: 94.8%
MUSK (human); compound 4.0 µM
  inhibition: 101%
IRAK1 (human); compound 0.2 µM
  inhibition: 68.5%
IRAK1 (human); compound 4.0 µM
  inhibition: 84%
IKBKE (human); compound 0.2 µM
  inhibition: 11.9%
IKBKE (human); compound 4.0 µM
  inhibition: 71.8%
MST4 (human); compound 0.2 µM
  inhibition: 4%
MST4 (human); compound 4.0 µM
  inhibition: 63.2%
CLK3 (human); compound 0.2 µM
  inhibition: 9.2%
CLK3 (human); compound 4.0 µM
  inhibition: 37%
PRKD3 (human); compound 0.2 µM
  inhibition: 63.7%
PRKD3 (human); compound 4.0 µM
  inhibition: 97.5%
DAPK1 (human); compound 0.2 µM
  inhibition: 64.4%
DAPK1 (human); compound 4.0 µM
  inhibition: 98.7%
CDK1 (human); compound 0.2 µM
  inhibition: -3%
CDK1 (human); compound 4.0 µM
  inhibition: 16%
CAMK1 (human); compound 0.2 µM
  inhibition: 7.3%
CAMK1 (human); compound 4.0 µM
  inhibition: 61.2%
DCLK2 (human); compound 0.2 µM
  inhibition: 5.2%
DCLK2 (human); compound 4.0 µM
  inhibition: 49.8%
MAPK9 (human); compound 0.2 µM
  inhibition: -8.7%
MAPK9 (human); compound 4.0 µM
  inhibition: -15.7%

## CNC(=O)c1ccccc1Sc1ccc2c(/C=C/c3ccccn3)n[nH]c2c1
DYRK1B (human); compound 0.001 µM
  inhibition: 3.6%
DYRK1B (human); compound 0.02 µM
  inhibition: -0.4%
SLK (human); compound 0.001 µM
  inhibition: -5.4%
SLK (human); compound 0.02 µM
  inhibition: 10.3%
GSG2 (human); compound 0.001 µM
  inhibition: -2.8%
GSG2 (human); compound 0.02 µM
  inhibition: -0.9%
PDK2 (human); compound 0.001 µM
  inhibition: -2.9%
PDK2 (human); compound 0.02 µM
  inhibition: -4.8%
BRSK1 (human); compound 0.001 µM
  inhibition: -2.4%
BRSK1 (human); compound 0.02 µM
  inhibition: 20.1%
CAMK2D (human); compound 0.001 µM
  inhibition: 3%
CAMK2D (human); compound 0.02 µM
  inhibition: 2.4%
CSNK2A2 (human); compound 0.001 µM
  inhibition: -3.1%
CSNK2A2 (human); compound 0.02 µM
  inhibition: -5.6%
MAPKAPK3 (human); compound 0.001 µM
  inhibition: -0.7%
MAPKAPK3 (human); compound 0.02 µM
  inhibition: -5.2%
EPHB4 (human); compound 0.001 µM
  inhibition: -7.3%
EPHB4 (human); compound 0.02 µM
  inhibition: -5.5%
EPHA4 (human); compound 0.001 µM
  inhibition: -6.8%
EPHA4 (human); compound 0.02 µM
  inhibition: -4.3%
CSNK1G2 (human); compound 0.001 µM
  inhibition: -2.9%
CSNK1G2 (human); compound 0.02 µM
  inhibition: -1.6%
AKT2 (human); compound 0.001 µM
  inhibition: 0.8%
AKT2 (human); compound 0.02 µM
  inhibition: -4.1%
SYK (human); compound 0.001 µM
  inhibition: -9.8%
SYK (human); compound 0.02 µM
  inhibition: -8.9%
EPHB3 (human); compound 0.001 µM
  inhibition: -8%
EPHB3 (human); compound 0.02 µM
  inhibition: -4.7%
PRKACG (human); compound 0.001 µM
  inhibition: -7.2%
PRKACG (human); compound 0.02 µM
  inhibition: -7.8%
STK38 (human); compound 0.001 µM
  inhibition: 8%
STK38 (human); compound 0.02 µM
  inhibition: -1.3%
FGFR4 (human); compound 0.001 µM
  inhibition: 0%
FGFR4 (human); compound 0.02 µM
  inhibition: -3.4%
BLK (human); compound 0.001 µM
  inhibition: 0.4%
BLK (human); compound 0.02 µM
  inhibition: -1.6%
CSK (human); compound 0.001 µM
  inhibition: -4.6%
CSK (human); compound 0.02 µM
  inhibition: -6.7%
ABL2 (human); compound 0.001 µM
  inhibition: 5.8%
ABL2 (human); compound 0.02 µM
  inhibition: 58.4%
MUSK (human); compound 0.001 µM
  inhibition: -3.1%
MUSK (human); compound 0.02 µM
  inhibition: 4.8%
IRAK1 (human); compound 0.001 µM
  inhibition: -12.5%
IRAK1 (human); compound 0.02 µM
  inhibition: 4.3%
IKBKE (human); compound 0.001 µM
  inhibition: -6.5%
IKBKE (human); compound 0.02 µM
  inhibition: -5.1%
MST4 (human); compound 0.001 µM
  inhibition: -4.6%
MST4 (human); compound 0.02 µM
  inhibition: -8%
CLK3 (human); compound 0.001 µM
  inhibition: 10.3%
CLK3 (human); compound 0.02 µM
  inhibition: -5.1%
PRKD3 (human); compound 0.001 µM
  inhibition: -4.3%
PRKD3 (human); compound 0.02 µM
  inhibition: -1.6%
DAPK1 (human); compound 0.001 µM
  inhibition: -5%
DAPK1 (human); compound 0.02 µM
  inhibition: 4.8%
CDK1 (human); compound 0.001 µM
  inhibition: -3.7%
CDK1 (human); compound 0.02 µM
  inhibition: -3.5%
CAMK1 (human); compound 0.001 µM
  inhibition: -3.4%
CAMK1 (human); compound 0.02 µM
  inhibition: -4.5%
DCLK2 (human); compound 0.001 µM
  inhibition: -2.7%
DCLK2 (human); compound 0.02 µM
  inhibition: -2.1%
MAPK9 (human); compound 0.001 µM
  inhibition: -9.7%
MAPK9 (human); compound 0.02 µM
  inhibition: -9.3%
HIPK3 (human); compound 0.001 µM
  inhibition: -5.2%
HIPK3 (human); compound 0.02 µM
  inhibition: -1.1%
CSNK1G1 (human); compound 0.001 µM
  inhibition: -4.5%
CSNK1G1 (human); compound 0.02 µM
  inhibition: -3.6%

— the kinase profiling compilation of Christmann-Franck et al. (2016)
